# Experimental data published in article PMC10029296, “Glepaglutide, a novel glucagon-like peptide-2 agonist, has anti-inflammatory and mucosal regenerative effects in an experimental model of inflammatory bowel disease in rats” (BMC Gastroenterology, 2023).
# No end group written: not given here.
# How the values were obtained:
# [1] = system: Wistar rats with INDO-induced small intestinal inflammation; test: INDO-induced small intestinal inflammation model, co- and post-treatment; format: in vivo, rat; conditions: 400 nmol/kg SC twice daily
# Experimental: Two treatment regimens were studied: glepaglutide (400 nmol/kg, SC, twice daily) was administered in a co-treatment regimen (Fig. 1B – administered at inflammation onset and throughout), and a post-treatment regimen (Fig. 1C – administered after inflammation onset and throughout).
# Two groups of controls, INDO controls (administered with INDO and treated with vehicle) and controls (administered with saline solution and treated with vehicle), were included in the studies (Fig. 1B and C). Groups of rats (n = 7–15) were sacrificed during the active inflammation phase (2–3 days after inflammation onset), on day 3 for the co-treatment regimen (Fig. 1B) and on day 4 for the post-treatment regimen (Fig. 1C), to determine small intestinal length, jejunal and ileal mass, and α-1-acid glycoprotein (α-1-AGP) and myeloperoxidase (MPO) concentrations in the jejunum and ileum. Equivalent groups of rats were sacrificed during the body weight recovery phase (14–15 days after inflammation onset), on day 14 for the co-treatment regimen (Fig. 1B), and on day 16 for the post-treatment regimen (Fig. 1C), to determine jejunal and ileal mass. Body weight and survival were recorded daily.
# (§1) Animals were anesthetized with carbon dioxide and then sacrificed by cervical dislocation. The small intestine (from the pylorus to the ileocecal junction) was dissected away from the abdomen and the surrounding mesenteric fat. Small intestinal length was measured after weighing the small intestine with a 1 g weight to obtain uniform tension. Thereafter, the small intestine was divided into two segments of equal length labeled as the jejunum and ileum. Segments were gently flushed with 0.9% saline, padded dry, and weighed. A 5 cm biopsy was collected 10 cm distal from the start of the jejunal segment, and another 5 cm biopsy was collected 10 cm distal from the start of the ileal segment. The biopsies were immediately frozen in liquid nitrogen and stored at -80 °C for later analysis of concentrations of α-1-AGP and MPO using commercially available enzyme-linked immunosorbent assay kits (Life Diagnostics [2510–2] and Hycult Biotech [HK 210], respectively). The preparation method was validated in house.
# Data are presented as mean ± standard error of the mean, unless otherwise stated. The intestinal growth-promoting effect of glepaglutide in naive rats was determined using a two-way analysis of variance (ANOVA, dose and time), and significant findings were further analyzed with the Bonferroni post hoc test. In the INDO model, a t-test was used to compare INDO control-treated rats with vehicle control-treated rats, and INDO control-treated rats with glepaglutide-treated rats. A p value of ≤ 0.05 was considered statistically significant. Grubbs’ test was used to test for outliers in the section, and outliers were not included in the analyses. Differences in survival between different groups were compared by the Cox–Mantel log-rank test.
# hGLP-2R = target: T1, hGLP-2R (Homo sapiens, UniProt O95838, D470N); test: cAMP accumulation assay in HEK293 cells stably expressing hGLP-2R (AlphaScreen)
# T1 sequence (O95838 1-553 D470N): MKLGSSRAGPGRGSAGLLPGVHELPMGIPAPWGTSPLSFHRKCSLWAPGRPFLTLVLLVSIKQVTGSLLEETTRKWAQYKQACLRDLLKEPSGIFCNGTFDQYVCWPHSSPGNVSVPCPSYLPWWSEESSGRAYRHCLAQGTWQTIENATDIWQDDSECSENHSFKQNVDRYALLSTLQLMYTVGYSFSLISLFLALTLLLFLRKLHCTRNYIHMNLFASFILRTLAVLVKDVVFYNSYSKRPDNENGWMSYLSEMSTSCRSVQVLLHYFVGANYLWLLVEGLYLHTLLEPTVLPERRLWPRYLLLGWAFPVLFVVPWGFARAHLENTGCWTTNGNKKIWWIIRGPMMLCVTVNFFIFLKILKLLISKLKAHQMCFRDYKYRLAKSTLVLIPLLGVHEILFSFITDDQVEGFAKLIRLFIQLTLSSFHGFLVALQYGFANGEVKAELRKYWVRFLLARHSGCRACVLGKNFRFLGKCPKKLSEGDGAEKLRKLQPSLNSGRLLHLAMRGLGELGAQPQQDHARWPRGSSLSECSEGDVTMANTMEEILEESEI
# Experimental: For assaying, HEK293 cells stably expressing hGLP-2R were seeded at 30,000 cells per well in 96-well microtiter plates coated with 0.01% poly-L-lysine. […] The reaction was stopped by decanting off the compound/buffer and replacing it with 80 µl lysis/detection buffer consisting of deionized water supplemented with 0.1% w/v BSA (Sigma-Aldrich A9430), 5 mM HEPES, and 0.3% v/v Tween-20 (Sigma-Aldrich P7949).
# Compound potency (EC50) and maximal effect (Emax) values were estimated by computer-aided curve fitting using a three-parameter logistic non-linear model.
# male Wistar rats [2] = test: INDO-induced small intestinal inflammation model validation study (INDO dose finding); conditions: data not shown
# male Wistar rats [3] = conditions: rat, in vivo
# Experimental: In this study, a dose of INDO 7 mg/kg was used based on the results of an INDO-induced small intestinal inflammation model validation study conducted by Zealand Pharma.
# naive Wistar rats = test: Intestinotrophic effect in naive rats; format: in vivo, rat; conditions: 80 and 400 nmol/kg SC once daily for 7 days, vs vehicle, 400 vs 80 nmol/kg p < 0.05
# Experimental: Glepaglutide (80 nmol/kg or 400 nmol/kg, SC, once daily) or vehicle (SC, once daily) were administered for 14 days to naive Wistar rats to assess the intestinotrophic properties of the peptide, before initiating studies in the small intestinal inflammation model (Fig. 1A). Overall, 18 rats were included per arm, with 6 rats each sacrificed on day 0, day 7, and day 14.
# as §1, with “The biopsies were immediately frozen in liquid nitrogen and stored at -80 °C for later analysis of concentrations of α-1-AGP and MPO using commercially available enzyme-linked immunosorbent assay kits (Life Diagnostics [2510–2] and Hycult Biotech [HK 210], respectively). The preparation method was validated in house.” left out
# Data are presented as mean ± standard error of the mean, unless otherwise stated. The intestinal growth-promoting effect of glepaglutide in naive rats was determined using a two-way analysis of variance (ANOVA, dose and time), and significant findings were further analyzed with the Bonferroni post hoc test. […]
# [4] = system: patients with moderate to severe CD; conditions: 8 weeks of treatment, failed to reach statistical significance; cited from earlier work
# Excerpt: Use of GLP-2 agonists for the treatment of IBD is not a novel concept. The ability of teduglutide to induce remission or to reduce the Crohn’s disease activity index (CDAI) score by at least 100 points after 8 weeks of treatment was examined in patients with moderate to severe CD [37]. […] We speculate that the study was underpowered and that the assessment of mucosal healing, rather than the CDAI, would have been a better endpoint to assess the effect of ...
# [5] = co-treatment, body weight recovery phase (day 14), vs INDO controls
# [6] = post-treatment, active inflammation phase (day 4), ELISA, vs INDO controls, p < 0.01
# [7] = post-treatment, body weight recovery phase (day 16), vs INDO controls
compound,measurement,setting,value
HGEGTFSSELATILDALAARDFIAWLIATKITDKKKKKK-NH2 [Glepaglutide],Survival,"[1]; co- and post-treatment regimens, Cox–Mantel log-rank test",no effect
same,EC50,hGLP-2R; SEM,0.0933 nM
"COc1ccc2c(c1)c(CC(=O)O)c(C)n2C(=O)c1ccc(Cl)cc1 [INDO, indomethacin]","Mortality, INDO 15 mg/kg",male Wistar rats [2],exaggerated mortality
same,"Induction of inflammation, INDO 3 mg/kg",male Wistar rats [3],insufficient for inducing inflammation
same,"Induction of macroscopic features of inflammation, INDO 7 mg/kg",male Wistar rats [3],sufficient and appropriate
HGEGTFSSELATILDALAARDFIAWLIATKITDKKKKKK-NH2 (C-terminus assumed) [Glepaglutide],"Ileal MPO concentration, co-treatment","[1]; co-treatment, active inflammation phase (day 3), ELISA, vs INDO controls, p < 0.001",significantly decreased
same,"Ileal α-1-AGP concentration, co-treatment","[1]; co-treatment, active inflammation phase (day 3), ELISA, vs INDO controls, p < 0.05",significantly decreased
same,"Small intestinal shortening (small intestinal length), co-treatment","[1]; co-treatment, active inflammation phase (day 3), vs INDO controls, p < 0.001",reversed
same,"Ileal mass, co-treatment, active inflammation phase","[1]; co-treatment, active inflammation phase, vs INDO controls, p < 0.05",significantly increased
same,"Ileal mass, co-treatment, body weight recovery phase",[1]; [5],significantly increased
same,"Jejunal mass, co-treatment, body weight recovery phase",[1]; [5],significantly increased
same,"Acute body weight loss, co-treatment","[1]; co-treatment, vs INDO controls, p < 0.001, data not shown",significantly decreased
same,"Ileal α-1-AGP concentration, post-treatment",[1]; [6],significantly decreased
same,"Jejunal α-1-AGP concentration, post-treatment",[1]; [6],significantly decreased
same,"Jejunal MPO concentration, post-treatment","[1]; post-treatment, active inflammation phase (day 4), ELISA, vs INDO controls, p < 0.05",significantly decreased
same,"Small intestinal shortening (small intestinal length), post-treatment","[1]; post-treatment, active inflammation phase (day 4), vs INDO controls, p = 0.05",significantly reversed
same,"Ileal mass, post-treatment, body weight recovery phase",[1]; [7],significantly increased
same,"Jejunal mass, post-treatment, body weight recovery phase",[1]; [7],significantly increased
same,"Acute body weight loss, post-treatment","[1]; post-treatment, data not shown",no effect
same,"Emax ± SEM, agonism of hGLP-2R (cAMP accumulation)","hGLP-2R; response normalized to a saturating concentration of hGLP-2 and baseline cAMP of unstimulated receptor, mean ± SEM, n = 5",102 ± 3.7
same,"Small intestinal mass, day 7",naive Wistar rats,dose-dependently increased
[Gly^2]GLP-2 [teduglutide],Effect on CDAI score,[4],"positive, dose-dependent effect"
